Values of other authors as cited in article PMC8781228 (Bioorganic & medicinal chemistry letters, 2017).

Tests used:
S1PR2 [1] = details: read-out: EC50 (allosteric S1PR2 selective agonist)
S1PR2 [2] = details: [33P]S1P competitive binding assay
S1PR5 = details: [γ-35S]GTPγS binding assay
S1PR1 = details: [γ-35S]GTPγS binding assay
S1PR2 [3] = details: [γ-35S]GTPγS binding assay
S1PR4 = details: [γ-35S]GTPγS binding assay
S1PR3 = details: [γ-35S]GTPγS binding assay

EC50 (S1PR2 [1]) [nM]	SMILES	competition with S1P (S1PR2 [2])	activity at S1PR5 (S1PR5)	activity at S1PR1 (S1PR1)	activity at S1PR2 (S1PR2 [3])	activity at S1PR4 (S1PR4)	activity at S1PR3 (S1PR3)
480	Cc1cc(C(=O)Cn2cc(C#N)ccc2=O)c(C)n1Cc1ccccc1 [CYM-5520]	not competitive with S1P					
	CCCCCCCCc1ccc(CCC(N)(CO)CO)cc1 [FTY720, fingolimod]		potent agonist	potent agonist	inactive	potent agonist	potent agonist
